# Reference: US20090227600A1, “4-(PYRAZINE-2-YL) -PYRROLIDINE -2-CARBOXYLIC ACID COMPOUNDS AND DERIVATIVES THEREOF AS HEPATITIS C VIRUS INHIBITORS” (priority 2004, published 2009)
# pIC50: −log10 of the molar value.
# Target: T1, HCV RNA Polymerase, recombinant NS5B with C-terminal 21 amino acid deletion, genotype 1a strain H77 (Hepatitis C virus genotype 1a, UniProt P27958)
# T1 construct: fused on or other part: C-terminal 6His-tag
# Test: In vitro HCV RNA-dependent RNA polymerase inhibition assay, genotype 1a C-terminally truncated (delta21) enzyme
# Assay type: biochemical, HCV genotype 1a
# Conditions: genotype 1a delta21 NS5B enzyme; read-out: IC50 in delta-21 1a enzyme inhibition assay
# From the text: Incorporation of [^33P]-GMP into RNA was followed by absorption of the biotin labelled RNA polymer by streptavidin containing SPA beads. A synthetic template consisting of biotinylated 13mer-oligoG hybridised to polyrC was used as a homopolymer substrate.
# a) Genotype 1a C-Terminally Truncated (delta21) Enzyme
# HCV RNA Polymerase [Recombinant NS5B with C-terminal 21 amino acid deletion and C-terminal 6His-tag (Ferrari et al. J. Virol, 73(2), 1999, 1649. ‘Characterization of soluble hepatitis C virus RNA-dependent RNA polymerase expressed in Escherichia coli.’) expressed in E. coli and purified to homogeneity] was added to 25 nM final concentration. Polymerase of genotype 1a was from strain H77 (Yanagi, M., Purcell, R. H., Emerson, S. U. & Bukh, J. (1997), Proceedings of the National Academy of Sciences, USA 94, 8738-8743) containing a sequence change from valine to isoleucine at position 180.
# Reaction Conditions were 25 nM enzyme, 1.5 μg/ml oligo-rG13/poly-rC and 0.2 μCi α-^33P-GTP in 0.5 μM GTP (20 Ci/mMol), 20 mM Tris pH 7.5, 23 mM NaCl, 3 mM DTT, 5 mM MgCl2, 1 mM MnCl2.
# Enzyme was diluted to 500 nM concentration in 20 mM Tris-HCl, pH 7.5, 25 mM NaCl and 3 mM DTT.
# 4× concentrated assay buffer mix was prepared using 1M Tris-HCl, pH7.5 (1 mL), 5M NaCl (0.25 mL), 1M DTT (0.12 mL) and Water (8.63 mL), Total 10 mL.
# 2× concentrated first reagent was prepared using 4× concentrated assay buffer mix (5 μL), 40 u/μL RNasin (0.1 μL), 20 μg/mL polyrC/biotinylated-oligoG (1.6 μL), 500 nM enzyme (1 μL) and Water (2.3 μL), Total 10 μl/well.
# 2× concentrated second reagent was prepared using 1M MgCl2 (0.1 μL), 1M MnCl2 (0.02 μL), 25 μM GTP (0.4 μL), α-[^33P]-GTP (10 μCi/μL, 0.02 μL) and water (9.5 μL), Total 10 μL/well.
# The assay was set up using compound (1 μL in 100% DMSO), first reagent (10 μL), and second reagent (10 μL), Total 21 μL.
# The reaction was performed in a U-bottomed, white, 96-well plate. The reaction was mixed on a plate-shaker, after addition of the Enzyme, and incubated for 1 h at 22° C. After this time, the reaction was stopped by addition of 60 μL 1.5 mg/ml streptavidin SPA beads (Amersham) in 0.1 M EDTA in PBS. The beads were incubated with the reaction mixture for 1 h at 22° C. after which 100 μL 0.1 M EDTA in PBS was added. The plate was sealed, mixed centrifuged and incorporated radioactivity determined by counting in a Trilux (Wallac) or Topcount (Packard) Scintillation Counter.
# After subtraction of background levels without enzyme, any reduction in the amount of radioactivity incorporated in the presence of a compound, compared to that in the absence, was taken as a measure of the level of inhibition. Ten concentrations of compounds were tested in three- or fivefold dilutions. From the counts per minute, percentage of inhibition at highest concentration tested or IC50s for the compounds were calculated using GraFit 3, GraFit 4 or GraFit 5 (Erithacus Software Ltd.) software packages or a data evaluation macro for Excel based on XLFit Software (IDBS).
# T1 sequence (P27958 2421-3011 V2599I, form open): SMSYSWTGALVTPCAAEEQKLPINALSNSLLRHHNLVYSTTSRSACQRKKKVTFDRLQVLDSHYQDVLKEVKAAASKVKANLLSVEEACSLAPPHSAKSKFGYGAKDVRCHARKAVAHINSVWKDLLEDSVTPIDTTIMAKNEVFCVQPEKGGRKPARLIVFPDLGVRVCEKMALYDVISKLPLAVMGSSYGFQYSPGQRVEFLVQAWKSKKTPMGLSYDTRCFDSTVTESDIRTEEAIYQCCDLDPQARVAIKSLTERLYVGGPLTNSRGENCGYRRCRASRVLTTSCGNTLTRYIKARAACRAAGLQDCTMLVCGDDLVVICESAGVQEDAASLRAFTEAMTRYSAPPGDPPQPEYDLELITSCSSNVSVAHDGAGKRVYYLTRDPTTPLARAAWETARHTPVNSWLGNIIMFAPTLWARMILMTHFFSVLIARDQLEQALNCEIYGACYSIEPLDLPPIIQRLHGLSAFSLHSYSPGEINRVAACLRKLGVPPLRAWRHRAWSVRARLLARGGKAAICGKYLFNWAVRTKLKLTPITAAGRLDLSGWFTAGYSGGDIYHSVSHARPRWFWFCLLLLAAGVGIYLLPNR
smiles,measurement,value
"COc1cc(C(=O)N2[C@@H](c3ncc(C)s3)[C@@H](c3cnccn3)C[C@@]2(Cc2cscn2)C(=O)O)ccc1C(C)(C)C (single isomer, unassigned; enantiomer a) [Example 16]",pIC50,> 6.82
